Values quoted from earlier work as cited in patent US20120277156A1, “INHIBITION OF PATHOLOGICAL BONE FORMATION” (priority 2009, published 2012).

System: proprioception
Settings: rat, in vivo

CCN(CC)CC(=O)Nc1c(C)cccc1C [lidocaine]
time by which function was fully recovered: ≤ 120 min
